Results from patent US20090325992A1, “COMPOUND HAVING CYCLIC GROUP BOUND THERETO THROUGH SPIRO BINDING AND USE THEREOF” (ONO PHARMACEUTICAL CO., LTD., priority 2006, published 2009).

How the values were obtained:
[1] = Artificial lipid membrane binding using Biacore S51 system; details: for Value of binding response (RU): DOPA liposome, 50 μM compound, PBS/5% DMSO pH 7.4, 37° C., corrected value; for Determination (artificial lipid membrane binding): positive = corrected binding response 150 or more
Method: Artificial Lipid Membrane Binding Account by using Biacore® S51 System
10 mM of 1,2-dioleoyl-sn-glycero-3-phosphate monosodium salt (hereinafter abbreviated as DOPA) chloroform solution was evaporated to dryness by means of an aspirator, and 0.6 mL of PBS/5% dimethyl sulfoxide (hereinafter abbreviated as DMSO) was added. The chloroform solution was fully suspended by means of a vortex mixer, and the freezing and thawing were repeated for 5 times. Liposome was created by means of a liposome preparation instrument (manufactured by Avestin Inc.) and two syringes, and was diluted to 0.5 mM with PBS/5% DMSO just prior to immobilization.
(2) Measurement Compound Preparation
38 μl of 1×PBS is added to 2 μl of a DMSO solution (10 mM), and further the 360 μl of 1×PBS/5% DMSO was added and the 50 μM of final concentration in PBS/5% DMSO was prepared and measured.
All of the following analysis used Biacore® S51 system and the measurement conditions were set by Biacore S51 Control Soft.
The measurement temperature was set to be 37° C., and PBS/5% DMSO (pH 7.4 or 6.0) was used as a buffer. Series S Sensor Chip L1 was used for a sensor chip. DOPA was immobilized in one of the measuring spots on the sensor surface and the central spot was used as a reference.
Immobilization of liposome was conducted at a flow rate of 10 μL/min for about 3 minutes and then the compound was added at a flow rate of 30 μL/min and the interaction was measured. The measurement conditions are as follows:
Assay buffer: PBS/5% DMSO (pH 7.4) Measurement temperature: 37° C. Sensor chip: Series S Sensor Chip L1 Flow rate: 10 μL/min at the time of the liposome immobilization; 30 μL/min at the time of the measurement of interaction with the compound Regeneration: 20 mM CHAPS (3-[(3-cholamidopropyl)dimethylammonio]-1-propanesulfonate), isopropylalcohol/aqueous 50 mM sodium hydroxide solution=40/60 (volume ratio) mixture solution (60 seconds)
The data processing was conducted by means of method of Abdiche et al., (Analytical biochemistry, 328, 233-243 (2004)) by using Biacore S51 Evaluation Soft.
Regarding the value of binding response (RU) in which the value of reference was subtracted, it was divided by a sample molecular weight after minute error of the DMSO concentration included in the sample solution was corrected. In addition, the value obtained here was divided by an amount of capture at the time of the cycle because the value obtained here was proportional to the amount of capture of the liposome and the value was multiplied by a million to be considered as a corrected value (Corrected value=1,000,000×RU (test compound)/molecular quantity (test compound) RU (liposome)).
The compound wherein a value of the binding response after the correction was 150 or more was determined as positive.

[2] = test system: CHL/IU (cell line derived from a Chinese hamster lung); test: Phospholipidosis detecting system using fluorescent labeling phospholipid analog (NBD-PE); format: cell-based; details: for Rate of increase of phospholipid accumulation (%) (compound dose: 200 μM): CHL/IU cells, compound dose 200 μM, about 48 hours, relative to NBD-PE control; for Determination (phospholipidosis, NBD-PE system): positive = 25% or more of the maximum increase rate of amiodarone
Method: Investigation with Phospholipidosis Detecting System using Fluorescent Labeling Phospholipidosis Analog under Severity Condition (1) Phospholipid Accumulation Measurement 100 μL/well as required (1 dose 2 wells) of cell suspension of CHL/IU (cell line derived from a Chinese hamster lung) (7×10^4 cells/mL) prepared by MEM (minimum essential medium) culture medium was added to a 96-well plate (96-well clear-bottom plate), and cultured for about 24 hours. After culture, the supernatant of the 96-well plate was removed, and the 100 μL/well compounds of each concentration dissolved and suspended in an MEM including 25 μmol/L nitrobenzoxadiazole dipalmitoyl phosphatidylethanolamine (NBD-PE) (hereinafter abbreviated as a NPD-PE medium) were added and treated for about 48 hours. The treatment concentrations of each compound were set to be 5, 50, 100 and 200 μM. The positive control substance was set to be amiodarone hydrochloride, and the treatment concentrations were set to be 1.25, 2.5, 5, 10 and 20 μM. In addition, 5-well untreated controls (only MEM) and 5-well NBD-PE controls (made by means of adding a 1/100 amount of DMSO to the NBD-PE culture medium) were set per compound, and cultured in the same manner. After finishing the culture, the cultures were washed twice with phosphate buffered saline (hereinafter abbreviated as PBS) (−) 100 μL/well, and the MEM (100 μL) was added to all of the treatment wells including two empty wells for WST-1 background controls and cultured for about a half hour. The fluorescence intensities of each well were measured by using a microplate reader (manufactured by Molecular Devices Inc., SPECTRA max M2; the excitation wavelength 485 nm/fluorescence wavelength 535 nm). (2) Analysis Using the average values of each dose×2 wells, a phospholipid increase rate (%) to the NBD-PE control was calculated by using the following calculating formula: Rate of increase of phospholipid accumulation (%)=100×{(test compound fluorescence intensity−non-treated control fluorescence intensity)/(NBD-PE control fluorescence intensity−non-treated control fluorescence intensity)} [Equation 2] (3) Cytotoxicity Assay 96-well plate measured in the phospholipid accumulation measurement was measured by means of Plate Reader (manufactured by Molecular Devices Inc., SPECTRA max M2) with the main wavelength of 450 nm and the correct wavelength of 690 nm to calculate a Pre value. An amount of 5 μL/well of Premix WS T-1 was added to each of the 96-hole plates by which Pre measurement was conducted. After culture for 2 to 4 hours, the 96-well plate was measured as well as the Pre measurement to calculate an Aft value. Then, the background control value was subtracted from the each measured value. A value which was calculated by subtracting the Pre value from the Aft value was used, then the cell growth rate (%) was calculated by using the following calculating formula: Cell growth rate (%)=100×[(test substance OD)/(NBD-PE control OD)] [Equation 3] (4) Determination A test dose that indicated value of 25% or more of the maximum phospholipid accumulation increase rate of amiodarone which was the positive control was determined as positive. In addition, the dose whose cell growth rate was equal to or less than 50% in the cytotoxicity assay was not used for determination of existence or nonexistence of a phospholipidosis inductive effect.

[3] = Measurement of maximum plasma level (Cmax) and stationary state distribution volume (Vss); details: male, Crl:CD(SD), rat, iv, 1 mg/kg
Method: Measurement of Maximum Plasma Level (Cmax) and Stationary State Distribution Volume (Vss)
A compound to be evaluated is weighed, dissolved in WellSolve (trade name; manufactured by Celeste Corporation) which is heated to 60° C. and adjusted to 20 mg/mL; thereafter, the test compound is diluted by 10 times with distilled water for injection, and further diluted by 2 times with saline solution, by which intravenously administered solution is eventually made. A compound to be evaluated is dissolved in WellSolve which is heated to 60° C. and adjusted to 50 mg/mL; thereafter, the compound to be evaluated is diluted with distilled water for injection and adjusted to 1 mg/mL. Five compounds (one set) were mixed in the same amount and adjusted to final concentration of 0.2 mg/mL per one compound, by which orally administered solution is eventually made. […] The administration is conducted under fasting conditions; water is freely ingested. In the case of intravenous administration, a 0.35 mL of blood sample is taken from cervical vein by using Heparinized Syringe at 5 minutes, 15 minutes, 30 minutes, 1 hour, 2 hours, 4 hours, 6 hours, 8 hours, and 24 hours after administration. […] The obtained blood is stored in ice, and after centrifugation at 12,000 rpm for 3 minutes, blood plasma is fractionated. In the case of intravenous administration, the blood plasma sample preserved at a temperature of −80° C. is dissolved; inner standard solution (100 μL) and acetonitrile (2 mL) are added to the blood plasma sample (100 μL) and stirred, and the sample is centrifuged at 2,500 rpm for 10 minutes.
After the supernatant centrifuged is evaporated to dryness by means of a centrifugal concentrator, 67% dimethyl sulfoxide solution (150 μL) is added to the residue and dissolves them again and 20 μL of the solution is analyzed by means of LC/MS/MS.
Measurement device: Waters 2795 (manufactured by Waters Corporation) Analytical column: Unison UK-C18, 3.0 μm particle size, 2.0 mm×30 mm (manufactured by Imtakt Corporation) Analytical column temperature: Room temperature Flow rate: 200 μL/min Moving bed: 5 mM IPC-PFAA-7 solution/acetonitrile (9/1→1/9)
Measurement device: Quatro micro API (manufactured by Micromass Communications Inc.) Scan type: MPM
The monitor ion which was suitable for each sample was selected.
A portion of the compound to be intravenously administered was subjected to the following treatment. The blood plasma sample preserved at a temperature of −80° C. is dissolved; inner standard solution (50 μL) and acetonitrile (1 mL) are added to the blood plasma sample (50 μL) and stirred, and the sample is centrifuged at 3,000 rpm for 10 minutes. After the supernatant is evaporated to dryness by means of a centrifugal concentrator, the residue was redissolved in water/acetonitrile (1/1) and the solution is analyzed by means of LC/MS/MS under the following conditions.
Measurement device: 1200 series system (manufactured by Agilent Technologies) Analytical column: Asahipak OOD-50 2D, 2×150 mm (manufactured by Showa Denko K.K.) Analytical column temperature: Room temperature Moving bed: 5 mM IPC—PFAA-7 solution/acetonitrile (gradient) Flow rate: 200 μL/min

[4] = target: T1, CXCR4 (human T cell strain CEM cells) (Homo sapiens, UniProt P61073); test: Inhibition of binding human SDF-1 to CEM cells (125I-SDF-1); details: 4° C., 60 minutes
T1 construct: a human T cell strain in which CXCR4 is known to be expressed; endogenous in cells; host or cells: CEM cells (human T cell strain)
Method: Specifically, as a system of screening a compound that inhibits the binding between SDF-1 and CXCR4, for example a system of measuring the binding between iodine-labeled SDF-1 and a human T cell strain in which CXCR4 is known to be expressed is operable.
Study for Inhibition of Binding Human SDF-1 to CEM Cells
To human T cell strain CEM cells in a binding buffer (containing HEPES and BSA), the test compound and ^125I-SDF-1 (PerkinElmer) were added and the mixture was incubated at 4° C. for 60 minutes. The reacted CEM cells were rapidly filtrated with a GF/B membrane filter plate (Packard) to adsorb. The plate was washed with phosphate buffered saline (hereinafter abbreviated to PBS) three times and then dried. Microscint+20 (Packard) was added thereto. An amount of the radioactivity bound to the CEM cells was measured using Top Count (Packard) and inhibition (%) of the test compound was calculated according to the following equation:
Inhibition={(Et−Ea)/(Et−Ec)}×100 [Equation 1]
Et: Amount of radioactivity when the test compound is not added,
Ec: Amount of radioactivity when non-radioactive SDF-1 (Pepro Tech) is added in an amount of 1,000 times as much as ^125I-SDF-1 as a test compound, and
Ea: Amount of radioactivity when the test compound is added.

T1 sequence (P61073 whole entry): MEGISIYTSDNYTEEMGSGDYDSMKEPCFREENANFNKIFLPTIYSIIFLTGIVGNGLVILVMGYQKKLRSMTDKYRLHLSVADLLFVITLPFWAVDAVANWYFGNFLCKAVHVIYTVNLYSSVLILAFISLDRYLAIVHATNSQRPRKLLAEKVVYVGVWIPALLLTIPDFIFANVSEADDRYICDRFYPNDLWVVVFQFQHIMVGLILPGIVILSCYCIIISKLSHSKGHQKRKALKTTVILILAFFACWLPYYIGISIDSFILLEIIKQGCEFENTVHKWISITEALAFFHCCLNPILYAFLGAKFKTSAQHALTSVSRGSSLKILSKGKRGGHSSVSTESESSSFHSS

SMILES | Value of binding response (RU) [1] | Determination (artificial lipid membrane binding) [1] | Rate of increase of phospholipid accumulation (%) (compound dose: 200 μM) [2] | Determination (phospholipidosis, NBD-PE system) [2] | Vd [3] | IC50 [4]
CCC(CC)N1CCC2(CCN(CCCn3ccnc3CN(CCCC(=O)O)Cc3ncc[nH]3)C2)CC1 [Example 25(1), 4-{[(1-{3-[8-(1-ethylpropyl)-2,8-diazaspiro[4.5]deca-2-yl]propyl}-1H-imidazol-2-yl)methyl](1H-imidazol-2-ylmethyl)amino}butanoic acid] | 28.3 RU | Negative | 16% | Negative | 0.36 L/kg | 6.6 nM
CCOC(=O)CCc1ccc(CN(Cc2ncc[nH]2)Cc2nccn2CCCN2CCC3(CCN(C(CC)CC)CC3)C2)s1 [Example 42(4), Ethyl 3-[5-({[(1-{3-[8-(1-ethylpropyl)-2,8-diazaspiro[4.5]deca-2-yl]propyl}-1H-imidazol-2-yl)methyl](1H-imidazol-2-ylmethyl)amino}methyl)-2-thienyl]propanoate] | – | – | – | – | – | 4.4 nM
CCOC(=O)CCCn1ccnc1CN(C)Cc1nccn1CCCN1CCC2(CCN(CC(C)C)CC2)C1 [Example 47(4), Ethyl 4-(2-{[({1-[3-(8-isobutyl-2,8-diazaspiro[4.5]deca-2-yl)propyl]-1H-imidazol-2-yl}methyl)(methyl)amino]methyl}-1H-imidazol-1-yl)butanoate] | – | – | – | – | – | 4.3 nM
CCOC(=O)COc1ccc(CN(Cc2ncc[nH]2)Cc2nccn2CCCN2CCC3(CCN(C(CC)CC)CC3)C2)cc1 [Example 42, Ethyl [4-({[(1-{3-[8-(1-ethylpropyl)-2,8-diazaspiro[4.5]deca-2-yl]propyl}-1H-imidazol-2-yl)methyl] (1H-imidazol-2-ylmethyl)amino}methyl)phenoxy]acetate] | – | – | – | – | – | 3 nM
CCC(CC)N1CCC2(CCN(CCCn3ccnc3CN(Cc3cccc(OCC(=O)O)c3)Cc3ncc[nH]3)C2)CC1 [Example 43(1), [3-({[(1-{3-[8-(1-ethylpropyl)-2,8-diazaspiro[4.5]deca-2-yl]propyl}-1H-imidazol-2-yl)methyl](1H-imidazol-2-ylmethyl)amino}methyl)phenoxy]acetic acid] | 41.2 RU | Negative | 14% | Negative | 0.42 L/kg | 6.3 nM
O=C(O)COc1cccc(CN(Cc2ncc[nH]2)Cc2nccn2CCCN2CCC3(CCN(C4CCCCC4)CC3)C2)c1 [Example 41(7), (3-{[({1-[3-(8-cyclohexyl-2,8-diazaspiro[4.5]deca-2-yl)propyl]-1H-imidazol-2-yl}methyl)(1H-imidazol-2-ylmethyl)amino]methyl}phenoxy)acetic acid] | 63.6 RU | Negative | 21% | Negative | – | 4.5 nM
CCOC(=O)COc1cccc(CN(Cc2ncc[nH]2)Cc2nccn2CCCN2CCC3(CCN(C(CC)CC)CC3)C2)c1 [Example 42(1), Ethyl [3-({[(1-{3-[8-(1-ethylpropyl)-2,8-diazaspiro[4.5]deca-2-yl]propyl}-1H-imidazol-2-yl)methyl] (1H-imidazol-2-ylmethyl)amino}methyl)phenoxy]acetate] | – | – | – | – | – | ≤ 3 nM
CCC(CC)N1CCC2(CCN(CCCn3ccnc3CN(Cc3ccc4cc(OCC(=O)O)ccc4c3)Cc3ncc[nH]3)C2)CC1 [Example 43(3), {[6-({[(1-{3-[8-(1-ethylpropyl)-2,8-diazaspiro[4.5]deca-2-yl]propyl}-1H-imidazol-2-yl)methyl](1H-imidazol-2-ylmethyl)amino}methyl)-2-naphthyl]oxy}acetic acid] | – | – | – | – | – | 13.6 nM
O=C(O)COc1ccc(CN(Cc2ncc[nH]2)Cc2nccn2CCCN2CCC3(CCN(C4CCCCC4)CC3)C2)cc1 [Example 41(6), (4-{[({1-[3-(8-cyclohexyl-2,8-diazaspiro[4.5]deca-2-yl)propyl]-1H-imidazol-2-yl}methyl)(1H-imidazol-2-ylmethyl)amino]methyl}phenoxy)acetic acid] | 72.9 RU | Negative | 16% | Negative | – | 4.4 nM
CCC(CC)N1CCC2(CCN(CCCn3ccnc3CN(Cc3cccc(SCC(=O)O)c3)Cc3ncc[nH]3)C2)CC1 [Example 43(2), {[3-({[(1-{3-[8-(1-ethylpropyl)-2,8-diazaspiro[4.5]deca-2-yl]propyl}-1H-imidazol-2-yl)methyl](1H-imidazol-2-ylmethyl)amino}methyl)phenyl]thio}acetic acid] | – | – | – | – | – | 9.3 nM
CCOC(=O)COc1ccc(CN(Cc2ncc[nH]2)Cc2nccn2CCCN2CCC3(CCN(C4CCCCC4)CC3)C2)cc1 [Example 40(12), Ethyl (4-{[({1-[3-(8-cyclohexyl-2,8-diazaspiro[4.5]deca-2-yl)propyl]-1H-imidazol-2-yl}methyl)(1H-imidazol-2-ylmethyl)amino]methyl}phenoxy)acetate] | – | – | – | – | – | ≤ 3 nM
CCOC(=O)COc1cccc(CN(Cc2ncc[nH]2)Cc2nccn2CCCN2CCC3(CCN(C4CCCCC4)CC3)C2)c1 [Example 40(13), Ethyl (3-{[({1-[3-(8-cyclohexyl-2,8-diazaspiro[4.5]deca-2-yl)propyl]-1H-imidazol-2-yl}methyl)(1H-imidazol-2-ylmethyl)amino]methyl}phenoxy)acetate] | – | – | – | – | – | ≤ 3 nM
CC(C)CN1CCC2(CC1)CCN(CCCn1ccnc1CN(Cc1ccc(CC(=O)O)cc1)Cc1ncc[nH]1)C2 [Example 22(4), (4-{[(1H-imidazol-2-ylmethyl)({1-[3-(8-isobutyl-2,8-diazaspiro[4.5]deca-2-yl)propyl]-1H-imidazol-2-yl}methyl)amino]methyl}phenyl)acetic acid] | 23.4 RU | Negative | 16% | Negative | 1.1 L/kg | 20.7 nM
COC(=O)Cc1ccc(CN(Cc2ncc[nH]2)Cc2nccn2CCCN2CCC3(CCN(CC(C)C)CC3)C2)cc1 [Example 21(4), Methyl (4-{[(1H-imidazol-2-ylmethyl)({1-[3-(8-isobutyl-2,8-diazaspiro[4.5]deca-2-yl)propyl]-1H-imidazol-2-yl}methyl)amino]methyl}phenyl)acetate] | – | – | – | – | – | 7.4 nM
